According to paper PMC6803673, “Molecular features of the UNC-45 chaperone critical for binding and folding muscle myosin” (Nature Communications, 2019):
Changes are numbered by the printed parent chain. Names and notes keep the numbering of the source. Each block holds one molecule with its values, some of them ahead of it.

Columns and labels:
[1] = biological target: T1, MHC-B (myosin II heavy chain isoform B, UNC-54) motor domain (Caenorhabditis elegans, UniProt P02566); test: X-ray crystal structure, […] A; conditions: nucleotide-binding pocket of the motor domain; crystals pH 6.5, 4 °C
T1 construct: motor domain, residues 1-790, C-terminal His6-tag, co-expressed with C. elegans UNC-45 in High Five insect cells, monomeric
T1 sequence (P02566 1-790): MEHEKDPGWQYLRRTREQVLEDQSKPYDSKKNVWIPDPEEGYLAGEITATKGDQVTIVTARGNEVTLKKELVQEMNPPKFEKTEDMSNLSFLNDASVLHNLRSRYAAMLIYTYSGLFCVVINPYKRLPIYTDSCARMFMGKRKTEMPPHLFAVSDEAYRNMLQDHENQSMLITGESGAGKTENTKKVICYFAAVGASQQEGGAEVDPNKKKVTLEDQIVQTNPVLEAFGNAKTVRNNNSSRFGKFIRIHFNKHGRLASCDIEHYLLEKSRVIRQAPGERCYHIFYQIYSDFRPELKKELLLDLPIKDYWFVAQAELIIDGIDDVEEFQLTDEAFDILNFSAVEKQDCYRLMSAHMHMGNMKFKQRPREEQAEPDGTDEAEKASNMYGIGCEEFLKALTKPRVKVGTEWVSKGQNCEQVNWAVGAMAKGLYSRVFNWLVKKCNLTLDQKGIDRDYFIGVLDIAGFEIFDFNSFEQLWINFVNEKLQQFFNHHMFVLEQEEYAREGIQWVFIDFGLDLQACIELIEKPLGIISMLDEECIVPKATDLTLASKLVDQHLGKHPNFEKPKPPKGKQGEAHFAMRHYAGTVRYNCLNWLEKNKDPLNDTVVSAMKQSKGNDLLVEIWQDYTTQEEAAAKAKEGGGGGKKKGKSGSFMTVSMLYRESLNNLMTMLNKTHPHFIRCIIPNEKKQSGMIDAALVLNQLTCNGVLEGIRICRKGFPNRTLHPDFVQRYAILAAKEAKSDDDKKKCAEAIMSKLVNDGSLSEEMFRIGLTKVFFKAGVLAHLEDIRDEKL

[2] = biological target: T1, MHC-B (myosin II heavy chain isoform B, UNC-54) motor domain; test: stopped-flow single turnover, intrinsic tryptophan fluorescence; assay type: biochemical; conditions: no actin; 20 mM MOPS pH 7.0, 25 mM KCl, 5 mM MgCl2, 20 °C
[3] = biological target: T2, UNC-45 wild type (bacterial) (C. elegans, UniProt G5EG62 1-961); test: SEC; myosin incubated at 27 °C for 60 min, then with UNC-45 (wild-type or ts-mutant) on ice for 60 min; S200 PC 3.2 column, 20 mM Tris pH 8.0, 150 mM NaCl; conditions: both partners purified
T2 construct: UNC-45, C. elegans myosin chaperone, wild type; also called wt UNC-45; wt chaperone; source: E. coli BL21(RIL), purified (NiNTA, anion exchange, SEC)
T2 sequence: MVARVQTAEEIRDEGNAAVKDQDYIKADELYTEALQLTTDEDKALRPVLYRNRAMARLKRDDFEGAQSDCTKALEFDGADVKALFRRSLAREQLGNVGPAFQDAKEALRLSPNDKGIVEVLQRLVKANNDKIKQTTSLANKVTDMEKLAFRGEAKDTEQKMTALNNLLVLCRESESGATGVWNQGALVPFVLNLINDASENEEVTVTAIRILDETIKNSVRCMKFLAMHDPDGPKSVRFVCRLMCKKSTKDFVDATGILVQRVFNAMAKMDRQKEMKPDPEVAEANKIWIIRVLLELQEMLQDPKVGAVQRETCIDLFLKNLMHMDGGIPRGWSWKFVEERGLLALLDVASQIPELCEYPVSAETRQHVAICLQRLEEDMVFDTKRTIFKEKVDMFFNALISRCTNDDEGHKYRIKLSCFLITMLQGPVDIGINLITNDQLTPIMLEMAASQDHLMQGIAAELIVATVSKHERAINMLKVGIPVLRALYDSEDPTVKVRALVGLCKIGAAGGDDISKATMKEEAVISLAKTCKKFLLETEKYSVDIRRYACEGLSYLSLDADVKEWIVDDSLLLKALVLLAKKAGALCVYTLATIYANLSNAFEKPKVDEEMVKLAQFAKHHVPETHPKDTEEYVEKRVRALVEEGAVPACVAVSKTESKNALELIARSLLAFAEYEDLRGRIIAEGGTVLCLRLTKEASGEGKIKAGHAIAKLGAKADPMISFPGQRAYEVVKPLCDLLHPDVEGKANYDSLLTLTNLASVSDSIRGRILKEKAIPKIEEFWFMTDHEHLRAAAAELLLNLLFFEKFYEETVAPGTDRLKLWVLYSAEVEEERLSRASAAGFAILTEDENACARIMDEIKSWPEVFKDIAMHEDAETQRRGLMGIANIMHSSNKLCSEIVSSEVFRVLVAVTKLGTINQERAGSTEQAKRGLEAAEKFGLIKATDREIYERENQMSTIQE

[4] = biological target: the molecule itself; test: crystal structure; UNC-45 mutant crystals grown by sitting drop vapor diffusion at 19 °C

Molecule: Nc1ncnc2c1ncn2[C@@H]1O[C@H](COP(=O)(O)OP(=O)(O)O)[C@@H](O)[C@H]1O [ADP]
X-ray crystal structure, 1.9 A [1]: we crystallized MHC-B and determined the structure of the ADP-bound state

Molecule: Nc1ncnc2c1ncn2[C@@H]1O[C@H](COP(=O)(O)OP(=O)(O)OP(=O)(O)O)[C@@H](O)[C@H]1O [ATP]
stopped-flow single turnover, intrinsic tryptophan fluorescence [2]: Upon ATP binding to the myosin motor domain Trp fluorescence is enhanced

binding result [3]: binds
B1: MHC-B muscle myosin motor domain (residues 1–790) (domain or fragment, C. elegans, UniProt P02566 1-790, looked up)
chain: T1 sequence (P02566 1-790)
notes: C. elegans body wall muscle myosin II heavy chain isoform B (MHC-B, UNC-54), motor domain, residues 1-790, cloned from C. elegans cDNA; In the SEC assays with UNC-45 the protein was heat-damaged (unfolded or misfolded) at 27 °C; Two vectors (pFastBac DUAL, pACEBac1) encode the same 1-790 His6 protein; also called myosin II heavy chain isoform B; UNC-54; source: High Five insect cells, …

B2: UNC-45 G427E (ts mutant, bacterial) (natural protein, C. elegans, UniProt G5EG62 1-961, looked up)
chain: T2 sequence with G427E
notes: UNC-45, C. elegans, temperature-sensitive point mutant G427E; the SEC assays used the native protein; also called tsG427E; source: E. coli BL21(RIL), purified (NiNTA, anion exchange, SEC); SeMet protein from B834-DE3 cells
binding result [4]: binds
